This note sets out measurements from patent publication US20100204141A1, “USE OF BPP-B AS A THERAPEUTIC AGENT” (priority 2007, published 2010).

Each structure is given as a SMILES string. Square brackets hold non-standard residues; d marks the D form. Peptide text beside a SMILES is read from it. pGlu = O=C1CC[C@@H](C(=O)O)N1

For one series, the system named is HepG2-2.2.15 cells. In words: Cytotoxicity (dye uptake cell viability) in the HBV assay. Particulars: test peptide 10 micrograms per ml. The format is cell-based.
A further series has as its system CEM-SS cells. In words: Cytotoxicity (MTS cell viability) in the HIV-1 assay. Particulars: CEM-SS cells; test peptide 10 micrograms per ml; MTS.
Another series concerns HIV-1IIIB. In words: HIV-1 antiviral assay (CPE reduction, MTS) in CEM-SS cells. Particulars: test peptide 10 micrograms per ml, 6 days post-infection.
The nature of series [1]: Cytotoxicity (MTS cell viability) in the HIV-1 assay. Particulars: human, CEM-SS cells (uninfected drug cytotoxicity wells).
The next series concerns Pseudomonas aeruginosa. The series can be described thus: Pseudomonas aeruginosa assay. Particulars: Pseudomonas aeruginosa growth; peptide 10 micrograms per ml. The format is cell-based. The method, then: (§1) The antibacterial assay was conducted using clear, U-bottom 96-well microtiter plates. Cation-adjusted Mueller-Hinton Broth (MHB) was used for testing Pseudomonas aeruginosa. The peptide of the invention (0.1 ml of each—10 micrograms per ml—) was dispensed into wells in duplicate. Then the wells were inoculated with 5×10^5 CFU/mL Pseudomonas aeruginosa in 0.1 ml volume. For control purposes, each plate included 4 wells containing media without bacterial inoculum and 4 wells containing medium with inoculum but without peptide. The plates were incubated for 12 h at 37° C., and read visually 18-24 hours post-incubation. Growth control of Pseudomonas aeruginosa was examined first to determine adequacy of media preparations and growth conditions. Acceptable growth is defined as ≧2 mm wide button of cells at the bottom of each sample well, or obvious turbidity in the culture supernatant. Test wells were examined and scored as positive/negative for activity. A positive score for activity is based on complete inhibition of macroscopic growth of the test Pseudomonas aeruginosa.

Series [2] can be described thus: Cytotoxicity testing in MRC-5 cells (CellTiter 96). The format is cell-based, human. Particulars: human, MRC-5 cells (embryonal lung fibroblasts), 6 days incubation, read-out: % Cell viability. The method, then: (§2) For cytotoxicity testing, MRC-5 cells were seeded at 2,500 cells/well in 96 well plates using growth medium. […] The following day, peptide was added and tested in duplicates. After a 6 days incubation period, cell viability was measured using CellTiter 96 Solution (Promega). Plates were incubated for additional 4 hours at 37° C.

A further series relates to Streptococcus pneumoniae. In words: Streptococcus pneumoniae assay. Type of series: cell-based. Particulars: Streptococcus pneumoniae growth; peptide 10 micrograms per ml. The method, then:
as §1, with “Streptococcus pneumoniae.” for “Pseudomonas aeruginosa.”, “Streptococcus pneumoniae” for “Pseudomonas aeruginosa”

Series [3] in a line: Cytotoxicity (dye uptake cell viability) in the HBV assay. Type of series: cell-based. Particulars: human, HepG2-2.2.15 cells (stable line containing HBV ayw genome), test peptide 10 micrograms per ml.
A further series relates to MRSA. The series can be described thus: Methicillin Resistant Staphylococcus Aureus (MRSA) assay. Type of series: cell-based. Particulars: MRSA growth; peptide 10 micrograms per ml. On the procedure: as §1, with “MRSA.” for “Pseudomonas aeruginosa.”, “MRSA” for “Pseudomonas aeruginosa”
For the next series, the system named is HCMV strain AD169. In words: HCMV plaque reduction assay in MRC-5 cells. Particulars: HCMV in MRC-5 cells; peptide 10 micrograms per ml; 7-10 days. On the technique in general: In a plaque reduction assay, fewer plaques than in the control indicate reduced infectivity or spread.
A further series concerns MRC-5 cells. The series can be described thus: Cytotoxicity testing in MRC-5 cells (CellTiter 96). Type of series: cell-based, human. Particulars: 6 days incubation. On the procedure: as §2

With `Nc1ccn([C@@H]2CS[C@H](CO)O2)c(=O)n1` [3TC], the “% Cell viability” value in the series with HepG2-2.2.15 cells worked out at 95.8%.

As for `Cc1cn([C@H]2C[C@H](N=[N+]=[N-])[C@@H](CO)O2)c(=O)[nH]c1=O` [AZT], in the series with CEM-SS cells, the “% Cell viability” value came out at 97%. In addition, in the series on HIV-1IIIB, the “% CPE reduction in HIV-1 infected CEM-SS cells” value came to 99%.

Usually viability stands for a read-out of living cells in per cent, often relative to untreated cells. For orientation: % inhibition means the relative decrease from the control value, in per cent. Low readings indicate a response near the control, high ones a response far below the control. In turn, `CC[C@H](C)[C@H](NC(=O)[C@H](CCCCN)NC(=O)[C@@H]1CCCN1C(=O)[C@H](CCCNC(=N)N)NC(=O)[C@@H]1CCCN1C(=O)[C@@H]1CCCN1C(=O)[C@H](CC(C)C)NC(=O)CNC(=O)[C@@H]1CCC(=O)N1)C(=O)N1CCC[C@H]1C(=O)N1CCC[C@H]1C(=O)O` [Bradykinin potentiator B, Pyr-Gly-Leu-Pro-Pro-Arg-Pro-Lys-Ile-Pro-Pro-OH] ([pGlu]GLPPRPKIPP-OH) showed a viability at 10 micrograms per ml in series [1] of 100%. In addition, the “% inhibition” value in the series on Pseudomonas aeruginosa, with Streptococcus pneumoniae and in the series on MRSA was 0.0% each time. For the same compound, in series [2], the viability at 144 h is 100%. For the same compound, the viability at 144 h, 10 micrograms per ml in series [3] was found to be 100%.

As to `Nc1nc(O)c2ncn(COC(CO)CO)c2n1` [Ganciclovir], in the series with HCMV strain AD169, the “% plaque reduction” value is reported as 100%. Besides, the “% Cell viability” value in the series on MRC-5 cells came out at 100%.

Regarding `CC(C)(C)NC(=O)[C@@H]1CN(Cc2cccnc2)CCN1C[C@@H](O)C[C@@H](Cc1ccccc1)C(=O)N[C@H]1c2ccccc2C[C@H]1O` [Indinavir], in the series with CEM-SS cells, the “% Cell viability” value is recorded as 93%. Besides, the “% CPE reduction in HIV-1 infected CEM-SS cells” value in the series on HIV-1IIIB is on record as 100%.
